Measured values: patent US8461328B2, “Tricyclic heterocyclic compounds, compositions and methods of use thereof” (Genentech, Inc., priority 2010, dated 2013)

Assays:
Assay type in all cases: biochemical
JAK1 = biological target: T1, JAK1 (Homo sapiens, UniProt P23458); experiment: JAK1 inhibition (Table 4); settings: read-out: JAK1 Ki
T1 construct: made in house; host or cells: SF9 insect cells (baculovirus)

JAK2 = biological target: T2, JAK2 (Homo sapiens, UniProt O60674); experiment: JAK2 inhibition (Table 4); settings: read-out: JAK2 Ki
T2 construct: made in house; host or cells: SF9 insect cells (baculovirus)

JAK3 = biological target: T3, JAK3 (Homo sapiens, UniProt P52333); experiment: JAK3 inhibition (Table 4); settings: read-out: JAK3 Ki
T3 construct: made in house; host or cells: SF9 insect cells (baculovirus)

TYK2 = biological target: T4, TYK2 (Homo sapiens, UniProt P29597); experiment: TYK2 inhibition (Table 4)
T4 construct: made in house; host or cells: SF9 insect cells (baculovirus)
T4 sequence (P29597 873-1187): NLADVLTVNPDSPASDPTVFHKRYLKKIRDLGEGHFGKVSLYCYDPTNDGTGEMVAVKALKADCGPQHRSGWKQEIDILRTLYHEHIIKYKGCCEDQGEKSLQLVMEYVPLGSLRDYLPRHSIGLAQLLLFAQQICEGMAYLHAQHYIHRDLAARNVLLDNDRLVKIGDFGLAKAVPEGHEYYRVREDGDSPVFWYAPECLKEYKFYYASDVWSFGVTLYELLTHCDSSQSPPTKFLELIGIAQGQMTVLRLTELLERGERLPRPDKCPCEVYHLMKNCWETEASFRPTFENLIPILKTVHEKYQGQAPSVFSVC

T1 sequence (P23458 852-1154): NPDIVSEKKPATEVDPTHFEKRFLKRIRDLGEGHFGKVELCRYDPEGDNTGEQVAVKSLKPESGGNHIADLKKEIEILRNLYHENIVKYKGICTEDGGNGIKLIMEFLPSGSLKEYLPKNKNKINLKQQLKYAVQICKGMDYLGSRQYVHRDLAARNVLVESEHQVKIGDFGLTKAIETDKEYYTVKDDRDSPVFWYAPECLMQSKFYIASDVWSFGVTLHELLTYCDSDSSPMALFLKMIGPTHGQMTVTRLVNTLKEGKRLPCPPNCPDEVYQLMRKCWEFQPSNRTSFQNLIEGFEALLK
T2 sequence (O60674 812-1132): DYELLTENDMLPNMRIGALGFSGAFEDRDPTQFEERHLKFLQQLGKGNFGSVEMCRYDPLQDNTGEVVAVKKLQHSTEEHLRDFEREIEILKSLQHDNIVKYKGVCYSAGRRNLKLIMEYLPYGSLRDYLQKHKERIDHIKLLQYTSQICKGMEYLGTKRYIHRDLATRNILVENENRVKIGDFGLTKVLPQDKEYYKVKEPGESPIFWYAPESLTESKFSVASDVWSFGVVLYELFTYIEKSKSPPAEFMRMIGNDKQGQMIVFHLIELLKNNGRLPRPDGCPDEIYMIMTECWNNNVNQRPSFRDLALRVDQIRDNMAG
T3 sequence (P52333 783-1124): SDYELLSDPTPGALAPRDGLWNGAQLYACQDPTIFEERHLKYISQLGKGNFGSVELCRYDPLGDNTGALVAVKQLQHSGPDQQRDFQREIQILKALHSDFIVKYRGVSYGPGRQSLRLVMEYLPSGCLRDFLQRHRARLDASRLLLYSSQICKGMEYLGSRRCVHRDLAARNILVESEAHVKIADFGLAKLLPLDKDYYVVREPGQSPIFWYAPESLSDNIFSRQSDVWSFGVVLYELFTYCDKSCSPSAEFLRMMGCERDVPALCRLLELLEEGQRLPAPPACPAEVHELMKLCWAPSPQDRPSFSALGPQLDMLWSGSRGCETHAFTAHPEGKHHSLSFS

SMILES	Ki (JAK1) [µM]	Ki (JAK2) [µM]	Ki (JAK3) [µM]	Ki (TYK2) [µM]
Cc1nc2cnc3[nH]ccc3c2n1C1CCOC(C)(C)C1 (centres unmarked) [Example 178, 1-(2,2-Dimethyl-tetrahydro-pyran-4-yl)-2-methyl-1,6-dihydro-1,2,3,5,6-tetraaza-as-indacene]	0.0738	0.0223	0.0162	0.104
FC1(F)CN(Cc2ccccc2)CCC1n1cnc2cnc3[nH]ccc3c21 (centres unmarked) [Example 179, 1-(1-Benzyl-3,3-difluoro-piperidin-4-yl)-1,6-dihydro-1,2,3,5,6-tetraaza-as-indacene]	0.00058	0.00111	0.0132	0.0216
O=CN1CCC(n2cnc3cnc4[nH]ccc4c32)C(F)(F)C1 (centres unmarked) [Example 180, 3,3-Difluoro-4-(6H-1,2,3,5,6-tetraaza-as-indacen-1-yl)-piperidine-1-carbaldehyde]	0.00555	0.0199	0.101	0.0632
Cc1nc2cnc3[nH]ccc3c2n1-c1ccc(C#N)cc1 [Example 183, 4-(2-Methyl-6H-1,2,3,5,6-tetraaza-as-indacen-1-yl)-benzonitrile]	0.0204	0.0449	0.65	0.0727
c1cc2c(ncc3ncn(C4CCc5[nH]ncc5C4)c32)[nH]1 (centres unmarked) [Example 198, 1-(4,5,6,7-Tetrahydro-1H-indazol-5-yl)-1,6-dihydro-1,2,3,5,6-tetraaza-as-indacene]	0.00638	0.0102	0.0257	0.0414
C[C@@H](O)c1nc2cnc3[nH]ccc3c2n1[C@H]1CCCOC1 [Example 199, (R)-1-[(S)-1-(Tetrahydro-pyran-3-yl)-1,6-dihydro-1,2,3,5,6-tetraaza-as-indacen-2-yl]-ethanol]	0.00249	0.0675	0.11	0.0276
c1ccc(CN2CCC(n3c(Cn4cccn4)nc4cnc5[nH]ccc5c43)CC2)cc1 [Example 201, 1-(1-Benzyl-piperidin-4-yl)-2-pyrazol-1-ylmethyl-1,6-dihydro-1,2,3,5,6-tetraaza-as-indacene]	0.00728	0.025	0.0122	0.488
CN(Cc1nc2cnc3[nH]ccc3c2n1C1CCN(Cc2ccccc2)CC1)S(C)(=O)=O [Example 203, N-[1-(1-Benzyl-piperidin-4-yl)-1,6-dihydro-1,2,3,5,6-tetraaza-as-indacen-2-ylmethyl]-N-methyl-methanesulfonamide]	0.0196	0.145	0.104	0.258
c1cnn(Cc2nc3cnc4[nH]ccc4c3n2C2CCNCC2)c1 [Example 204, 1-Piperidin-4-yl-2-pyrazol-1-ylmethyl-1,6-dihydro-1,2,3,5,6-tetraaza-as-indacene]	0.0919	1.54	0.862	1.47
N#CCCN1CCC(n2c(Cn3cccn3)nc3cnc4[nH]ccc4c32)CC1 [Example 205, 3-[4-(2-Pyrazol-1-ylmethyl-6H-1,2,3,5,6-tetraaza-as-indacen-1-yl)-piperidin-1-yl]-propionitrile]	0.00642	0.0233	0.0326	0.0865
CC(=O)NCc1nc2cnc3[nH]ccc3c2n1C1CCNCC1 [Example 207, N-(1-Piperidin-4-yl-1,6-dihydro-1,2,3,5,6-tetraaza-as-indacen-2-ylmethyl)-acetamide]	0.0781	1.87	3.01	1.21
Cn1nccc1C(=O)NCc1nc2cnc3[nH]ccc3c2n1C1CCN(CCC#N)CC1 [Example 209, 2-Methyl-2H-pyrazole-3-carboxylic acid {1-[1-(2-cyano-ethyl)-piperidin-4-yl]-1,6-dihydro-1,2,3,5,6-tetraaza-as-indacen-2-ylmethyl}-amide]	0.00217	0.0176	0.0306	0.0666
Cc1nc2cnc3[nH]ccc3c2n1C1CCS(=O)(=O)CC1 [Example 210, 1-(1,1-Dioxo-hexahydro-1-thiopyran-4-yl)-2-methyl-1,6-dihydro-1,2,3,5,6-tetraaza-as-indacene]	0.147	0.642	0.645	0.514

The remaining lines, values ahead:

Ki (JAK1) [µM]	Ki (JAK2) [µM]	Ki (JAK3) [µM]	Ki (TYK2) [µM]	SMILES
0.00158	0.00266	0.0874	0.00753	OC(CN1CCC(n2cnc3cnc4[nH]ccc4c32)CC1)(C(F)(F)F)C(F)(F)F [Example 174, 1,1,1,3,3,3-Hexafluoro-2-[4-(6H-1,2,3,5,6-tetraaza-as-indacen-1-yl)-piperidin-1-ylmethyl]-propan-2-ol]
0.00216	0.00705	0.0958	0.0243	N#Cc1ccc(N[C@H]2CC[C@H](n3cnc4cnc5[nH]ccc5c43)CC2)nc1 [Example 176, Trans 6-[4-(6H-1,2,3,5,6-Tetraaza-as-indacen-1-yl)-cyclohexylamino]-nicotinonitrile]
0.042	0.144	1.4	0.519	CN1CCC[C@H]1CN1CCC(n2cnc3cnc4[nH]ccc4c32)CC1 [Example 177, 1-[1-((S)-1-Methyl-pyrrolidin-2-ylmethyl)-piperidin-4-yl]-1,6-dihydro-1,2,3,5,6-tetraaza-as-indacene]
0.0947	0.25	1.49	0.644	OCCN1CC[C@@H](n2cnc3cnc4[nH]ccc4c32)C1 [Example 184, 2-[(R)-3-(6H-1,2,3,5,6-Tetraaza-as-indacen-1-yl)-pyrrolidin-1-yl]-ethanol]
0.105	0.162	0.502	0.708	CC(C)(O)CN1CC[C@@H](n2cnc3cnc4[nH]ccc4c32)C1 [Example 185, 2-Methyl-1-[(R)-3-(6H-1,2,3,5,6-tetraaza-as-indacen-1-yl)-pyrrolidin-1-yl]-propan-2-ol]
0.22	0.167	3.17	1.5	CC(C)(C#N)C(=O)N1CC[C@@H](n2cnc3cnc4[nH]ccc4c32)C1 [Example 186, 2,2-Dimethyl-3-oxo-3-[(R)-3-(6H-1,2,3,5,6-tetraaza-as-indacen-1-yl)-pyrrolidin-1-yl]-propionitrile]
0.0101	0.0223	0.0576	0.0588	N#CCCN1CC[C@@H](n2cnc3cnc4[nH]ccc4c32)C1 [Example 187, 3-[(R)-3-(6H-1,2,3,5,6-Tetraaza-as-indacen-1-yl)-pyrrolidin-1-yl]-propionitrile]
0.0685	0.161	0.778	0.672	CC(=O)N1CC[C@@H](n2cnc3cnc4[nH]ccc4c32)C1 [Example 188, 1-[(R)-3-(6H-1,2,3,5,6-Tetraaza-as-indacen-1-yl)-pyrrolidin-1-yl]-ethanone]
0.0627	0.0674	0.0592	0.114	CS(=O)(=O)N1CC[C@@H](n2cnc3cnc4[nH]ccc4c32)C1 [Example 190, 1-((R)-1-Methanesulfonyl-pyrrolidin-3-yl)-1,6-dihydro-1,2,3,5,6-tetraaza-as-indacene]
0.00487	0.0176	0.192	0.169	N#Cc1ccc(CN2CC[C@@H](n3cnc4cnc5[nH]ccc5c43)C2)cc1 [Example 191, 4-[(R)-3-(6H-1,2,3,5,6-Tetraaza-as-indacen-1-yl)-pyrrolidin-1-ylmethyl]-benzonitrile]
0.0245	0.0513	0.401	0.388	COCC(=O)N1CCC(n2cnc3cnc4[nH]ccc4c32)CC1 [Example 192, 2-Methoxy-1-[4-(6H-1,2,3,5,6-tetraaza-as-indacen-1-yl)-piperidin-1-yl]-ethanone]
0.00391	0.00532	0.282	0.0307	O=S(=O)(CCO)N1CCC(n2cnc3cnc4[nH]ccc4c32)CC1 [Example 194, 2-[4-(6H-1,2,3,5,6-Tetraaza-as-indacen-1-yl)-piperidine-1-sulfonyl]-ethanol]
0.00066	0.00113	0.0276	0.00216	N#CCC1(N2CCC(n3cnc4cnc5[nH]ccc5c43)CC2)COC1 [Example 195, {3-[4-(6H-1,2,3,5,6-Tetraaza-as-indacen-1-yl)-piperidin-1-yl]-oxetan-3-yl}-acetonitrile]
0.007	0.0222	0.133	0.0614	CS(=O)(=O)Nc1ccc(N2CCC(n3cnc4cnc5[nH]ccc5c43)CC2)nc1 [Example 211, N-[4-(6H-1,2,3,5,6-Tetraaza-as-indacen-1-yl)-3,4,5,6-tetrahydro-2H-[1,2]bipyridinyl-5′-yl]-methanesulfonamide]
0.00217	0.00321	0.059	0.0116	FCCN1CCC(n2cnc3cnc4[nH]ccc4c32)CC1 [Example 212, 1-[1-(2-Fluoro-ethyl)-piperidin-4-yl]-1,6-dihydro-1,2,3,5,6-tetraaza-as-indacene]
0.00564	0.0439	0.303	0.0825	CC(C)N[C@H]1CC[C@H](n2cnc3cnc4[nH]ccc4c32)CC1 [Example 214, Isopropyl-[4-(6H-1,2,3,5,6-tetraaza-as-indacen-1-yl)-cyclohexyl]-amine]
